# Assay results from patent US9439839B2, “Cosmetic solution, method for producing cosmetic solution, and cosmetic method” (priority 2011, dated 2016).
# Test: evaluation of moisturizing power with oil water content measuring apparatus
# Assay type: in vivo
# Conditions: cosmetic solution diluted twice by water, applied to forearm flexor side; compared with propylene glycol and 1,3-butylene glycol
# Text: For the evaluation of moisturizing power, an oil water content measuring apparatus (WSK-P500U manufactured by Wave Cyber) was used. This measuring apparatus indicates the water content of the part of the skin to be measured by a relative value of 0 to 99. The part to be measured was the forearm flexor side.
smiles,measurement,value
OCC(O)CO [glycerin],moisturizing power,highest moisturizing power
